Data as given in patent US11447454B2, “Synthesis of benzodiazepine derivatives” (Trio Medicines Limited, priority 2015, dated 2022).

Assays:
[1] = Morphology studies (crystallisation attempts, XRPD); assay type: physicochemical
Text: This is indicative of an advantage over YF476 in terms of the formulation of a suitable pharmaceutical composition. YF476 is crystalline, which contributes to poor solubility and bioavailability. Amorphous YF476 can be used to increase bioavailability, but requires stabilization, which can be achieved as a solid dispersion on hydroxypropyl methyl cellulose by spray-drying.

[2] = Solubility study in Britton-Robinson's buffer (HPLC-UV); assay type: physicochemical
Protocol: The test compound (2.5 mg of solid; n=1) was weighed in a clear glass vial and Britton-Robinson's buffer (0.5 mL) was added (pH 2.01, pH 3.06, pH 4.06, pH 5.08, pH 5.99, pH 6.98, and pH 8.16). The solution was agitated at ambient temperature overnight using a vial roller system, and then filtered (0.45 µm pore size; without pre-saturation). Two aliquots (50 μL) were sampled from the filtrate and diluted with one volume of 0.1 N hydrochloric acid and methanol (1:1 v/v) before analysis by HPLC-UV. A standard was prepared in DMSO at 10 mg/mL (n=1) which was then diluted 10-fold in 0.1 N hydrochloric acid and methanol (1:1 v/v) to give a 1 mg/mL solution. The concentration of test compound in the filtrate was quantified relative to the concentration standard.
Analysis was done using a gradient HPLC-UV system with a total cycle time of 6 min. The UV detection between 220 nm and 300 nm was done using a photodiode array detector. Total response was monitored.
The values given in the table above are for crystalline YF476 and (TR2-A) and amorphous (TR1).

CCK2 (human) = biological target: T1, CCK2 (human) (Homo sapiens, UniProt P32239); test: CCK2 receptor functional assay (antagonist effect, cAMP, HTRF); assay type: cell-based
T1 construct: expressed in transfected cells; host or cells: CHO cells
T1 sequence (P32239 1-447): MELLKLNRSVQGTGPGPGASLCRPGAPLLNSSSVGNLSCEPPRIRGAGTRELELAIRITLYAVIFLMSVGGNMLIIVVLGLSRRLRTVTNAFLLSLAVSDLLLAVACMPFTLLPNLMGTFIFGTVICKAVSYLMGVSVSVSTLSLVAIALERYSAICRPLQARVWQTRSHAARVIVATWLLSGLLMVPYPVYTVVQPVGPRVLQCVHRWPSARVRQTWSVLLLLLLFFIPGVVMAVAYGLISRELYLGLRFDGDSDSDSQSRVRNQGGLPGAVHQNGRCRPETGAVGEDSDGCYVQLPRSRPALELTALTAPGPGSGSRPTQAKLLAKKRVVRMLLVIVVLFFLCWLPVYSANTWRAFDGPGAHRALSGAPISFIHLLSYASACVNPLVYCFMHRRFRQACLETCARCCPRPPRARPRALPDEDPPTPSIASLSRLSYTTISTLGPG
Text: (§1) (TR2) and (TR3) were compared with YF476 and YM022 in CCK1 and CCK2 receptor functional assays with the following assay criteria.
(§2) Furthermore, the selectivity of (TR2) for the CCK2 receptor over the CCK1 receptor was 30% higher than the selectivity of YF476. The potency of the antagonists is expressed as IC50, the concentration of antagonist that causes a half-maximum inhibition of the control agonist response. The affinity of the antagonist for the receptor is expressed as KB, the concentration of antagonist, which would occupy 50% of the receptors at equilibrium.

AGSGR cells = test: Sulphorhodamine-B (SRB) proliferation assay; assay type: cell-based, human; settings: G17 10 nM
Protocol: The potency of (TR2) and (TR3) was tested in a sulphorhodamine-B (SRB) proliferation assay in a human gastric adenocarcinoma cell line stably transfected with the human gastrin/CCK2 receptor gene (AGSGR). SRB is a fluorescent dye that binds to proteins, so cells with a high rate of protein synthesis (proliferative cells) will show high levels of fluorescence in the SRB assay. The gastrin fragment G17 has an anti-proliferative effect on AGSGR cells. So, when treated with G17, the cells show lower levels of fluorescence in the SRB assay. (TR2) and (TR3) were compared with the positive controls YF476 and YM022. […] None of the compounds tested affected AGSGR cell proliferation in the absence of G17.

[3] = Pharmacokinetics in healthy subjects; settings: human, in vivo, po
Protocol: In an initial study, healthy volunteers took a single oral dose of 100 mg (TR2) as an active pharmaceutical ingredient (API) in a capsule. Plasma concentrations were measured.
In further clinical studies, healthy volunteers (n=8) took single oral doses of 5, 15, 50 and 100 mg (TR2) as an active pharmaceutical ingredient (API) in a capsule. Plasma concentrations were measured.
Healthy volunteers (n=8) took single oral doses of 5, 15, 25 and 50 mg (TR2-A) as API in a capsule (TR2-A (crystalline) in hard gelatin capsules with no excipient, no processing of the API). Plasma concentrations of (TR2) and (TR2-A) were measured. The area under the curve of plasma concentrations of (TR2) after a single oral dose of 50 mg of (TR2-A) API (AUC0-24 h=212.5) was about the same as that observed for a similar formulation of a single oral dose of (TR2) 100 mg (AUC0-24 h=241.5). […] Moreover, the plasma concentrations of (TR2-A) were low (AUC0-24 h<10), showing that (TR2-A) is acting as a prodrug for (TR2).

panel of 80 receptors = test: Receptor binding screen, radiolabelled ligands; settings: scintillation counting; other than CCK2 and CCK1
Protocol: The potential of (TR2) and (TR3) to bind to other cellular and nuclear receptors was tested in a panel of 80 receptors. The assay used radiolabelled receptor ligands (agonist or antagonist, depending on the receptor), and the ability of the test compounds to inhibit ligand binding was measured by scintillation counting.

CCK1 (human) = biological target: T2, CCK1 (human) (Homo sapiens, UniProt P32238); test: CCK1 receptor functional assay (antagonist effect, cAMP, HTRF); assay type: cell-based
T2 construct: expressed in transfected cells; host or cells: CHO cells
T2 sequence (P32238 1-428): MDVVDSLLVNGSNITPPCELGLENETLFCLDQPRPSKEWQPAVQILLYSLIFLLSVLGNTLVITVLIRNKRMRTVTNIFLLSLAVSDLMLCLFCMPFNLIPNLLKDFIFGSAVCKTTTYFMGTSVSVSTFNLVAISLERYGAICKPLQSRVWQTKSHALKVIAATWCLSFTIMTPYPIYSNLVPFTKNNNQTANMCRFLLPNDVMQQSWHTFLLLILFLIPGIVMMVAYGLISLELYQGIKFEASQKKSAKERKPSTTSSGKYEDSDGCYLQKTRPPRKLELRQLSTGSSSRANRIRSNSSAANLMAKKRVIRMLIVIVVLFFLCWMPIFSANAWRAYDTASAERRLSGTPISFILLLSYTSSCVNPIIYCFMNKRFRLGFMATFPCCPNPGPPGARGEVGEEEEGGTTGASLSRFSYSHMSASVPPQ
Text: as §1
as §2, with “The” for “Furthermore, the selectivity of (TR2) for the CCK2 receptor over the CCK1 receptor was 30% higher than the selectivity of YF476. The”

[4] = system: increase in H+ concentration of gastric aspirate induced by pentagastrin; test: Pharmacodynamic effect in healthy subjects (pentagastrin infusion); assay type: in vivo, human
Protocol: Pentagastrin induces gastric acid secretion, and thereby increases H^+ concentration.
In further clinical studies, in healthy volunteers, single oral doses of 5, 15, 50 and 100 mg of (TR2) or 5, 15, 25 and 50 mg (TR2-A) were administered in conjunction with pentagastrin infusion (i.v. dose 0.6 μg/kg/h for 2 h).
YF476 with pentagastrin infusion.

SMILES	preferred solid state [1]	CCK2 receptor antagonism (in words) (CCK2 (human))	inhibition of the anti-proliferative effects of G17 (AGSGR cells; compound 100 nM)	inhibition of ligand binding in panel of 80 receptors (panel of 80 receptors)	CCK1 receptor antagonism (in words) (CCK1 (human))	also measured
CNc1cccc(NC(=O)NC2N=C(c3ccccn3)c3ccccc3N(CC(=O)C(C)(C)CO)C2=O)c1 (racemic) [TR1]	prefer an amorphous state over a crystalline state					aqueous solubility compared (in words) [2]: more soluble in aqueous solution than YF476
CNc1cccc(NC(=O)N[C@@H]2N=C(c3ccccn3)c3ccccc3N(CC(=O)C(C)(C)CO)C2=O)c1 [TR2, (R)-1-[1-(4-Hydroxy-3,3-dimethyl-2-oxo-butyl)-2-oxo-5-pyridin-2-yl-2,3-dihydro-1H-benzo[e][1,4]diazepin-3-yl]-3-(3-methylamino-phenyl)-urea]	prefer an amorphous state over a crystalline state	potent CCK2 receptor antagonists	completely inhibited	No significant receptor binding	less potent CCK1 receptor antagonists	selectivity for the CCK2 receptor over the CCK1 receptor higher than the selectivity of YF476 (CCK2 (human)): 30%; less potent than YF476 and YM022 in the CCK2 assay (CCK2 (human); IC50 compared): about 5 fold; affinity for the CCK2 receptor lower than that of YF476 (CCK2 (human); KB compared): about 5 fold; affinity for the CCK2 receptor relative to YM022 (CCK2 (human); KB compared): twice; AUC relative to YF476 100 mg [3]: about twice; solid state by XRPD analysis [1]: amorphous state
CNc1cccc(NC(=O)N[C@@H]2N=C(c3ccccn3)c3ccccc3N(CC(=O)C(C)(C)COC(C)=O)C2=O)c1 [TR2-A, (R)-1-[1-(4-Acetoxy-3,3-dimethyl-2-oxo-butyl)-2-oxo-5-pyridin-2-yl-2,3-dihydro-1H-benzo[e][1,4]diazepin-3-yl]-3-(3-methylamino-phenyl)-urea]						potency as a CCK2 receptor antagonist in healthy subjects (in words) [4]: greater than that of both (TR2) and YF476
CNc1cccc(NC(=O)N[C@H]2N=C(c3ccccn3)c3ccccc3N(CC(=O)C(C)(C)CO)C2=O)c1 [TR3]	prefer an amorphous state over a crystalline state	potent CCK2 receptor antagonists		No significant receptor binding	less potent CCK1 receptor antagonists	inhibition of the anti-proliferative effects of G17 (AGSGR cells; compound 500 nM): had the same effect
CNc1cccc(NC(=O)N[C@@H]2N=C(c3ccccn3)c3ccccc3N(CC(=O)C(C)(C)C)C2=O)c1 [YF476, reference compound]			completely inhibited			
Cc1cccc(NC(=O)N[C@@H]2N=C(c3ccccc3)c3ccccc3N(CC(=O)c3ccccc3C)C2=O)c1 [YM022, reference compound]			completely inhibited			
